Experimental data: patent US6358885B1, “Substituted phenylheterocyclic herbicides” (Mississippi State University, priority 1992, dated 2002)

Assays:
Assay in all cases: Test B preemergence/postemergence greenhouse plant response rating 0 to 10
[1] = test system: barley; assay type: in vivo, Hordeum vulgare; conditions: for Plant response rating, Barley: 0 to 10 scale
Method in brief: (§1)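 Planted seeds are treated preemergence with compound dissolved in a non-phytotoxic solvent, while postemergence applications go onto plants of two to eighteen cm. Plants stay in the greenhouse twelve to sixteen days and are then rated visually relative to controls.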

[2] = test system: blackgrass; assay type: in vivo, Alopecurus myosuroides; conditions: for Plant response rating, Blackgrass: 0 to 10 scale
Method in brief: as §1

[3] = test system: cheatgrass; assay type: in vivo, Bromus secalinus; conditions: for Plant response rating, Cheatgrass: 0 to 10 scale
Method in brief: as §1

[4] = test system: crabgrass; assay type: in vivo, Digitaria spp.; conditions: for Plant response rating, Crabgrass: 0 to 10 scale
Method in brief: as §1

[5] = test system: giant foxtail; assay type: in vivo, Setaria faberii; conditions: 0 to 10 scale
Method in brief: as §1

[6] = test system: lambsquarters; assay type: in vivo, Chenopodium album; conditions: 0 to 10 scale
Method in brief: as §1

[7] = test system: rape; assay type: in vivo, Brassica napus; conditions: 0 to 10 scale
Method in brief: as §1

[8] = test system: soybean; assay type: in vivo, Glycine max; conditions: 0 to 10 scale
Method in brief: as §1

[9] = test system: velvetleaf; assay type: in vivo, Abutilon theophrasti; conditions: 0 to 10 scale
Method in brief: as §1

[10] = test system: purple nutsedge; assay type: in vivo, Cyperus rotundus; conditions: 0 to 10 scale
Method in brief: as §1

| Structure (SMILES) | Plant response rating (0 to 10 scale), Barley ([1]; POSTEMERGENCE, Rate 50 g/ha) | Plant response rating, Barley ([1]; POSTEMERGENCE, Rate 200 g/ha) | Plant response rating, Barley ([1]; PREEMERGENCE, Rate 50 g/ha) | Plant response rating, Barley ([1]; Rate 200 g/ha, PREEMERGENCE) | Plant response rating (0 to 10 scale), Blackgrass ([2]; POSTEMERGENCE, Rate 50 g/ha) | Plant response rating, Blackgrass ([2]; POSTEMERGENCE, Rate 200 g/ha) | Plant response rating, Blackgrass ([2]; PREEMERGENCE, Rate 50 g/ha) | Plant response rating, Blackgrass ([2]; Rate 200 g/ha, PREEMERGENCE) | Plant response rating (0 to 10 scale), Cheatgrass ([3]; POSTEMERGENCE, Rate 50 g/ha) | Plant response rating, Cheatgrass ([3]; POSTEMERGENCE, Rate 200 g/ha) | Plant response rating, Cheatgrass ([3]; PREEMERGENCE, Rate 50 g/ha) | Plant response rating, Cheatgrass ([3]; Rate 200 g/ha, PREEMERGENCE) | Plant response rating (0 to 10 scale), Crabgrass ([4]; POSTEMERGENCE, Rate 50 g/ha) | Plant response rating, Crabgrass ([4]; POSTEMERGENCE, Rate 200 g/ha) | Plant response rating, Crabgrass ([4]; PREEMERGENCE, Rate 50 g/ha) | Plant response rating, Crabgrass ([4]; Rate 200 g/ha, PREEMERGENCE) | Plant response rating, Giant foxtail ([5]; POSTEMERGENCE, Rate 50 g/ha) | Plant response rating, Giant foxtail ([5]; POSTEMERGENCE, Rate 200 g/ha) | Plant response rating, Giant foxtail ([5]; PREEMERGENCE, Rate 50 g/ha) | Plant response rating, Giant foxtail ([5]; Rate 200 g/ha, PREEMERGENCE) | also measured |
| --- | --- | --- | --- | --- | --- | --- | --- | --- | --- | --- | --- | --- | --- | --- | --- | --- | --- | --- | --- | --- | --- |
| CC(C)Oc1cc(-c2nn3c(c2Cl)CCCC3)c(F)cc1Cl [Compound 21] | 6 | 4 | 0 | 2 | 3 | 5 | 6 | 7 | 5 | 8 | 4 | 6 | 2 | 6 | 2 | 8 | 4 | 7 | 5 | 9 | Plant response rating, Lambsquarter ([6]; POSTEMERGENCE, Rate 50 g/ha): 10; Plant response rating, Lambsquarter ([6]; POSTEMERGENCE, Rate 200 g/ha): 10; Plant response rating, Lambsquarter ([6]; PREEMERGENCE, Rate 50 g/ha): 10; Plant response rating, Lambsquarter ([6]; Rate 200 g/ha, PREEMERGENCE): 10; Plant response rating, Rape ([7]; POSTEMERGENCE, Rate 50 g/ha): 6; Plant response rating, Rape ([7]; POSTEMERGENCE, Rate 200 g/ha): 10; Plant response rating, Rape ([7]; PREEMERGENCE, Rate 50 g/ha): 3; Plant response rating, Rape ([7]; Rate 200 g/ha, PREEMERGENCE): 8; Plant response rating, Soybean ([8]; POSTEMERGENCE, Rate 50 g/ha): 9; Plant response rating, Soybean ([8]; POSTEMERGENCE, Rate 200 g/ha): 9; Plant response rating, Soybean ([8]; PREEMERGENCE, Rate 50 g/ha): 0; Plant response rating, Soybean ([8]; Rate 200 g/ha, PREEMERGENCE): 2; Plant response rating, Velvetleaf ([9]; POSTEMERGENCE, Rate 50 g/ha): 10; Plant response rating, Velvetleaf ([9]; POSTEMERGENCE, Rate 200 g/ha): 9; Plant response rating, Velvetleaf ([9]; PREEMERGENCE, Rate 50 g/ha): 1; Plant response rating, Velvetleaf ([9]; Rate 200 g/ha, PREEMERGENCE): 10; Plant response rating, Nutsedge ([10]; POSTEMERGENCE, Rate 50 g/ha): 1; Plant response rating, Nutsedge ([10]; POSTEMERGENCE, Rate 200 g/ha): 3; Plant response rating, Nutsedge ([10]; PREEMERGENCE, Rate 50 g/ha): 0; Plant response rating, Nutsedge ([10]; Rate 200 g/ha, PREEMERGENCE): 0 |
| Fc1cc(Cl)c(OCc2ccccc2)cc1-c1nn2c(c1Cl)CCCC2 [Compound 22] | 4 | 5 | 0 | 0 | 3 | 3 | 0 | 5 | 3 | 4 | 0 | 3 | 3 | 2 | 2 | 4 | 3 | 4 | 3 | 9 | Plant response rating, Lambsquarter ([6]; POSTEMERGENCE, Rate 50 g/ha): 8; Plant response rating, Lambsquarter ([6]; POSTEMERGENCE, Rate 200 g/ha): 10; Plant response rating, Lambsquarter ([6]; PREEMERGENCE, Rate 50 g/ha): 6; Plant response rating, Lambsquarter ([6]; Rate 200 g/ha, PREEMERGENCE): 9; Plant response rating, Rape ([7]; POSTEMERGENCE, Rate 50 g/ha): 4; Plant response rating, Rape ([7]; POSTEMERGENCE, Rate 200 g/ha): 7; Plant response rating, Rape ([7]; PREEMERGENCE, Rate 50 g/ha): 0; Plant response rating, Rape ([7]; Rate 200 g/ha, PREEMERGENCE): 1; Plant response rating, Soybean ([8]; POSTEMERGENCE, Rate 50 g/ha): 5; Plant response rating, Soybean ([8]; POSTEMERGENCE, Rate 200 g/ha): 6; Plant response rating, Soybean ([8]; PREEMERGENCE, Rate 50 g/ha): 0; Plant response rating, Soybean ([8]; Rate 200 g/ha, PREEMERGENCE): 2; Plant response rating, Velvetleaf ([9]; POSTEMERGENCE, Rate 50 g/ha): 6; Plant response rating, Velvetleaf ([9]; POSTEMERGENCE, Rate 200 g/ha): 9; Plant response rating, Velvetleaf ([9]; PREEMERGENCE, Rate 50 g/ha): 4; Plant response rating, Velvetleaf ([9]; Rate 200 g/ha, PREEMERGENCE): 5; Plant response rating, Nutsedge ([10]; POSTEMERGENCE, Rate 50 g/ha): 2; Plant response rating, Nutsedge ([10]; POSTEMERGENCE, Rate 200 g/ha): 2; Plant response rating, Nutsedge ([10]; PREEMERGENCE, Rate 50 g/ha): 0; Plant response rating, Nutsedge ([10]; Rate 200 g/ha, PREEMERGENCE): 0 |
